Patent US20100203126A1 (priority 2007, published 2010)
Read-outs that look alike come from different tables or passages of the source. Each block holds one molecule with its values, some of them ahead of it.

What was measured:
[1] = Stability test for ubidecarenone and vitamins/minerals under co-existence at typical formulation ratio; assay type: physicochemical; conditions: ubidecarenone 50 mg, accelerated stability test
[2] = Stability test for ubidecarenone and vitamins/minerals under co-existence, mixed 1:1; assay type: physicochemical; conditions: for % residual amount of ubidecarenone: mixed 1:1, 40±2° C., 75±5 RH %; for effect of ingredient on stability of ubidecarenone: each ingredient singly mixed with ubidecarenone (Table 26)
[3] = cited from earlier work
[4] = Stability test for ubidecarenone according to content of 90% ascorbic acid; assay type: physicochemical; conditions: text summary of Table 28
Text: The results are as follows.

residual amount of ubidecarenone, 2 weeks (%) ([1]; 2 weeks): 99.2%
residual amount of ubidecarenone, Initial (%) ([1]; initial): 100%
% residual amount of ubidecarenone ([2]; 2 weeks): 99.2%
% residual amount of ubidecarenone ([2]; initial (regarded as 100.0%)): 100%
SMILES: COC1=C(OC)C(=O)C(C/C=C(\C)CC/C=C(\C)CC/C=C(\C)CC/C=C(\C)CC/C=C(\C)CC/C=C(\C)CC/C=C(\C)CC/C=C(\C)CC/C=C(\C)CCC=C(C)C)=C(C)C1=O [Ubidecarenone]
solubility ([3]; in alcohol): insoluble
solubility ([3]; in ether): highly soluble
solubility ([3]; in water): insoluble

SMILES: C=C1CC[C@H](O)C/C1=C/C=C1\CCC[C@]2(C)[C@@H]([C@H](C)CCCC(C)C)CC[C@@H]12 [dried cholecalciferol]
effect of ingredient on stability of ubidecarenone [2]: excessively reduce the stability of ubidecarenone

SMILES: CC(=O)Oc1c(C)c(C)c2c(c1C)CCC(C)(CCC[C@H](C)CCC[C@H](C)CCCC(C)C)O2 (stereo partly drawn) [alpha-tocopherol acetate]
effect of ingredient on stability of ubidecarenone [2]: excessively reduce the stability of ubidecarenone

residual amount of ubidecarenone as content of ascorbic acid in sample tablet increases [4]: remarkably reduced
SMILES: O=C1O[C@H]([C@@H](O)CO)C(O)=C1O [ascorbic acid]

SMILES: C[N+](C)(C)CCO.O=C([O-])C(O)C(O)C(=O)O (stereo not drawn) [choline bitartrate]
effect of ingredient on stability of ubidecarenone [2]: excessively reduce the stability of ubidecarenone

SMILES: CCCCCCCCCCCCCCCC(=O)OC/C=C(C)/C=C/C=C(C)/C=C/C1=C(C)CCCC1(C)C [retinol palmitate]
effect of ingredient on stability of ubidecarenone [2]: excessively reduce the stability of ubidecarenone
